This is an account of results in patent US20260265216A1, “NOVEL THIOREDOXIN REDUCTASE INHIBITORS” (GENEXPLAIN GMBH, priority 2021, published 2026).

For test [1], the system named is cancer cells. As to the kind of experiment: Cell growth assay, combination with BSO. It is filed as cell-based. Particulars: 5 μM 1d*HCl and 50 μM BSO. The protocol: Further, we tested whether the inhibition of GR by BSO will have additive effect with 1d*HCl. If 1d*HCl mechanism of action includes inhibition of GR, BSO will not have an additive effect. We used a range of concentrations of 1d*HCl and BSO in cell growth assays. […] Next, we tested whether the prevention of oxidative stress by NAC will affect the growth suppression by the combination of 1d*HCl and BSO. In the presence of NAC we observed the additive effect of 1d*HCl with 50 μM BSO only at twice higher dose of 1d*HCl-10 μM.

Test [2] deals with cancer cells. As to the kind of experiment: Oxidative stress measurement (DCFH-DA, ROS). It is filed as cell-based. The protocol: Cells were treated with compounds and incubated 30 min with 10 μM DCF-DA in serum free medium. Afterward, cells were trypsinized, washed with PBS and fluorescence was analyzed by a FACSCalibur flow cytometer (BD Biosciences) using FL1-H channel.
To get insight into the mechanism of the anti-tumor activity of 1d*HCl, we tested the level of oxidative stress upon treatment. We measured the induction of reactive oxygen species (ROS), using 2′-7′-Dichlorodihydrofluorescein diacetate (DCFH-DA)-based assay. […] After 8 h of treatment, the induction of reactive oxygen species (ROS) was much higher.

The test system of the next test is U2OS. The test is described as follows: Growth suppression, cancer cell line panel (resazurin). In kind it is cell-based. Particulars: 0.4-25.6 μM, 48 hours. The protocol:
(§1) Breast, colon, ovarian, cervical, liver and lung carcinoma cell lines were grown in DMEM supplemented with 10% FBS, and antibiotics were cultured at 37° C. and 5% CO2. Osteosarcoma, melanoma, lymphoma, neuroblastoma and leukemia cell lines were cultured in RPMI 1640 with 10% FBS and antibiotics. An oxygen concentration of 0.3% was obtained by flushing a sealed box containing the cells with premixed gas composed of 95% nitrogen (N2) and 5% CO2 (AGA AB, Sweden). To obtain an oxygen concentration of 0.05%, the cells were flushed with the premixed gas continuously throughout the experiment.
(§2) Cells were grown in 96-well plates at a density of 3000 cells per well with or without doxycycline and treated with compounds. After 48 hours of incubation the proliferative cell reagent resazurin (Thermo Fisher Scientific) was added to the cells. The degree of resazurin reduction, which reflects cell viability, was measured by microplate reader by monitoring the absorbance at 570 nm and 600 nm, according to the manufacturer.
(§3) The panel of cancer cell lines, including carcinomas of breast (MDA-MB231, SKBR3, T47D, MCF7; BT549, BT20, MDA-MB468), colon, (SW480, RKO, HT29, HCT116) ovarian (OVCAR3, OVCAR4, OVCAR8), cervical (SW756, C33A), liver (HEPG2) and lung (H23), osteosarcoma (SJSA and U2OS), melanoma (ME180), lymphoma (Raji, HDLM2), neuroblastoma (SKNAS, IMR32) and leukemia (NB4, K562) were treated with increasing concentrations of 1d*HCl: 0.4; 0.8; 1.6; 3.2; 6.4; 12.8; 25.6 μM in 96-well plates. After 48 hours of incubation the proliferative cell reagent resazurin was added to the cells. The degree of resazurin reduction, which reflects cell viability, was measured by microplate reader by monitoring the absorbance at 570 nm and 600 nm, according to the manufacturer, and the IC50 and AUC (area under curve) were determined (Table 2). As could be seen in Table 2, 1d*HCl suppressed the growth of cancer cell lines of a different origin, including carcinomas, osteosarcomas, melanoma, lymphoma, leukemia and neuroblastoma. These findings open up a possibility of the application of the present invention in anti-cancer therapy in a broad range of tumor types.
A general note: Resazurin is reduced to fluorescent resorufin, in cell work by metabolically active cells.

Another test concerns IMR32. The test is described as above. In kind it is cell-based. The conditions noted are these: IMR32, 0.4-25.6 μM, 48 hours. The protocol:
as §1, §2, §3

The next test has as its system C33A. Described as above. In kind it is cell-based. Particulars: 0.4-25.6 μM, 48 hours. The procedure: as §1, §2, §3
A further test concerns OVCAR3. The test is described as above. Particulars: OVCAR3, 0.4-25.6 μM, 48 hours. In kind it is cell-based. The protocol:
as §1, §2, §3

Test [3] is described as follows: Growth suppression with selenium in culture medium. The conditions noted are these: selenium added to culture medium. In kind it is cell-based. An excerpt:
To find out whether the inhibition of TrxR1 is the major mechanism of action of 1d*HCl, we addressed the question, whether stimulation of TrxR1 activity will decrease the growth suppression activity of 1d*HCl. Since TrxR is a selenium-containing enzyme and the concentration of selenium is rate-limiting for TrxR1, we added selenium to culture medium to test whether selenium will alleviate the growth suppression by 1d*HCl.

Test [4] has as its target T1, recombinant purified TrxR1 (Homo sapiens, UniProt Q16881).
T1 construct: made in house; host or cells: Release Factor 1-depleted E. coli strain
T1 sequence (Q16881 1-499 isoform Q16881-5): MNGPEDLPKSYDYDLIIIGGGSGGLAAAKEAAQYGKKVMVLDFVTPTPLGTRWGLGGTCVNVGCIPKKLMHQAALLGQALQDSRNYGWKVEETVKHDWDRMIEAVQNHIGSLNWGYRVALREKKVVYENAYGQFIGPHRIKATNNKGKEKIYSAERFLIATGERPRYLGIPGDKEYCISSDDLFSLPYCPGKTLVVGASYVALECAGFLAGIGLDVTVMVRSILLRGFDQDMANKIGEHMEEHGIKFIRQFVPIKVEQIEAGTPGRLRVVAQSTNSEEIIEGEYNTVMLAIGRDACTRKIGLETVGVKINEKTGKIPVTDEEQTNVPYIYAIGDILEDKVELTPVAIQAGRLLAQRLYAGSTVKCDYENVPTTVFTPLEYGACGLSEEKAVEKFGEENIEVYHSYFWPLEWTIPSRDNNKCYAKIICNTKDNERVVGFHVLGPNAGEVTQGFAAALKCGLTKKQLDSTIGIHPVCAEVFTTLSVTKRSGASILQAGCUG
The test is described as follows: TrxR1 enzymatic activity measurement in vitro. It is filed as biochemical. The conditions noted are these: recombinant purified enzyme in vitro. The procedure: TrxR1 enzyme was recombinantly produced with high Sec contents in a specific Release Factor 1-depleted E. coli strain and purified as previously described (Arnér E S J, Holmgren A, in Current Protocols in Toxicology, Maines M, Costa L, Reed D, Sassa S, Eds. (John Wiley & Sons, Inc., New York, 2000), pp. 7.4.1-7.4.14). TrxR1 and GSR (Sigma) recombinant enzyme assays were performed in a reaction buffer containing 50 mM Tris pH 7.5 with 2 mM EDTA and 0.1 mg/mL bovine serum albumin as described previously (Arnér E S J, Holmgren A, in Current Protocols in Toxicology, Maines M, Costa L, Reed D, Sassa S, Eds. (John Wiley & Sons, Inc., New York, 2000), pp. 7.4.1-7.4.14). Briefly, assays were performed in triplicate using 96-well plates, with activity inferred from absorbance changes using a Spectra Max plate reader. Results of recombinant enzyme assays were normalized to DMSO and to no enzyme controls.
We used recombinant purified TrxR1 and GR in an in vitro assay as described in methods section.

With `Cl.N#Cc1c(-c2cccnc2)[n+]([O-])c2cc(F)c(N3CCOCC3)cc2[n+]1[O-]` [Compound 1d*HCl, 6-Fluoro-7-(morpholin-4-yl)-3-(pyridin-3-yl)quinoxaline-2-carbonitrile-1,4-dioxide hydrochloride], the “effect of combination with BSO on cell growth” value with cancer cells [1] was “have an additive effect and completely eradicated cancer cells”. Further, in the test with cancer cells [2] (2 h after treatment), the “induction of reactive oxygen species (DCF fluorescence)” value is recorded as “significant increase in DCF fluorescence”. Moreover, the “induction of reactive oxygen species (ROS)” value in the test with cancer cells [2] (after 8 h of treatment) was “much higher”. The “AUC (area under curve)” value in the test with U2OS was found to be 2.10; in the test on IMR32, 6.40; with C33A it was 21; in the test with OVCAR3 it was 4.813. Further, the “growth suppression in the presence of selenium” value in test [3] is given as “less efficient in the presence of selenium”. Moreover, the “inhibition of enzymatic activity of TrxR1” value in test [4] was “efficiently inhibited the enzymatic activity of TrxR1 in a dose- and time-dependent manner”.
